In PubChem BioAssay (NCI):
Several values for one entry are separate records, joined by “and”; a condition that tells them apart may be missing. Equal values may be shown once.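 A five-concentration, 48-hour dose response in 96-well plates underlies each endpoint, interpolated linearly between surrounding concentrations. The concentration for 50% growth inhibition is given as GI50. TGI: total growth inhibition.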

Key:
Assay in all cases: inhibition of tumour cell growth, NCI panel, 48 h
[1] = test system: SK-OV-3 ovarian
[2] = test system: HL-60(TB) leukemia
[3] = test system: SR leukemia
[4] = test system: SK-MEL-2 melanoma
[5] = test system: CAKI-1 renal
[6] = test system: SN12C renal
[7] = test system: SNB-19 CNS
[8] = test system: OVCAR-8 ovarian

SMILES | GI50 [1] | TGI [1] | GI50 [2] | TGI [2] | GI50 [3] | TGI [3] [µM] | GI50 [4] | TGI [4] | GI50 [5] | TGI [5] | GI50 [6] | TGI [6] | GI50 [7] | TGI [7] | GI50 [8] | TGI [8]
COC(=O)[C@H]1CCCN1C(=O)[C@H]1CCCN1C(=O)[C@H](Cc1c[nH]c2ccccc12)NC(=S)Nc1cc(C(F)(F)F)cc(C(F)(F)F)c1 | 92.7 µM | > 100 µM | 4.19 µM | 57.2 µM | 3.67 µM | > 100 | 5.34 µM | 27.8 µM | 15 µM | > 100 µM | 7.32 µM | > 100 µM | 9.49 µM | > 100 µM | 7.01 µM | > 100 µM
O=C(CN1C(=O)S/C(=C\C(Cl)=C\c2ccccc2)C1=O)NC1C=CS(=O)(=O)C1 (stereo not given) | 3.3 µM | 32.6 µM |  |  | 0.29 µM | > 100 | 2.11 µM | 5.22 µM | 1.65 µM | 4.23 µM | 1.27 µM | 5.51 µM | 2.76 µM | 11.5 µM | 0.939 µM | > 100 µM
CN1CCN(CCCOc2cccc3nc(Nc4ccc(Cl)c(C(F)(F)F)c4)ccc23)CC1 | 1.99 µM | 4.35 µM | 1.87 µM | 4.03 µM | 0.54 µM | 3.4 | 2.06 µM | 4.49 µM | 1.67 µM | 3.19 µM | 1.6 µM | 3.38 µM | 1.64 µM | 3.14 µM |  | 
CCN(CC)Cc1cc2[nH]c3c4ccc(Cl)cc4ncc3c2cc1OC | 14.2 µM and 3.63 µM | 27.3 µM and 12.1 µM | 5.13 µM and 2.24 µM |  | 2.36 µM |  | 7.39 µM and 16.5 µM | 16.6 µM and 31.6 µM | 3.36 µM and 2.3 µM | 9.14 µM and 9.8 µM | 10.8 µM and 13.7 µM | 22.7 µM and 26.7 µM | 2.63 µM and 3.51 µM | 7.51 µM and 11.9 µM | 3.63 µM and 2.5 µM | 12.2 µM and 7.41 µM
O=C(CC(Cl)=C(Cl)Cl)c1cccc(Cl)c1Cl | > 100 µM | > 100 µM | 64.8 µM | > 100 µM |  |  | > 100 µM | > 100 µM |  |  | 46.9 µM | > 100 µM | > 100 µM | > 100 µM | > 100 µM | > 100 µM
O=C1Cc2cc(C(=O)NC3C[C@H]4CC[C@@H](C3)N4S(=O)(=O)CC3CCN(CCCC(F)(F)F)CC3)c(Cl)cc2N1 (stereo not given in full) | > 100 µM | > 100 µM | > 100 µM | > 100 µM | 26.5 µM | > 100 | > 100 µM | > 100 µM | > 100 µM | > 100 µM | > 100 µM | > 100 µM | > 100 µM | > 100 µM | > 100 µM | > 100 µM
CC[C@H](C)[C@H](NC(=O)[C@H]1CCCCN1C)C(=O)N(C)[C@H](C[C@@H](OC(C)=O)c1nc(C(=O)N[C@@H](Cc2ccccc2)C[C@H](C)C(=O)O)cs1)C(C)C | 0.000807 µM and 0.00165 µM |  | 0.000394 µM and < 0.00165 µM | 0.00267 µM and < 0.00165 µM | 0.000305 µM and 0.00165 µM | > 16.5 | 0.0007 µM |  | 0.00197 µM |  | 0.003 µM and 0.00165 µM | > 16.5 µM | 0.000595 µM and 0.00165 µM | > 16.5 µM | 0.00297 µM and 0.00165 µM | > 16.5 µM
CCN1CCN(C(=O)[C@]23CCC(C)(C)C[C@@H]2C2=CC[C@@H]4[C@@]5(C)C/C(=C/c6ccncc6)C(=O)C(C)(C)[C@@H]5CC[C@@]4(C)[C@]2(C)CC3)CC1 | 2.1 µM | 4.41 µM | 1.04 µM | 4.4 µM |  |  | 1.73 µM | 3.33 µM | 1.45 µM | 2.95 µM | 1.31 µM | 2.66 µM | 1.48 µM | 2.86 µM |  | 
N=c1c2c(=N)n3c(nc2nc2n1-c1ccccc1Sc1ccccc1-2)sc1cc(Cl)ccc13 | 4.42 µM | 37 µM |  |  | 2.77 µM | > 100 | 1.44 µM | 13.9 µM | 1.94 µM | > 100 µM | 2.33 µM | 32.6 µM | 2.88 µM | 68.7 µM | 3.1 µM | 67.9 µM
CC(=O)c1c(C)[nH]c(-c2nc3ccc(N4CCN(C)CC4)cc3[nH]2)c1-c1ccccc1 | 0.97 µM | > 100 µM | 0.261 µM | 12.7 µM |  |  | 4.02 µM | 22.2 µM | 0.212 µM | 12.8 µM | 2.34 µM | 23.2 µM | 3.03 µM | > 100 µM | 3.08 µM | > 100 µM
COc1cc2c3c(n(C)c(=O)c2cc1OC)-c1ccc(C#N)cc1C3=O | > 100 µM | > 100 µM |  |  |  |  | > 100 µM | > 100 µM | > 100 µM | > 100 µM | > 100 µM | > 100 µM | > 100 µM | > 100 µM | > 100 µM | > 100 µM
CC[C@H](C)[C@H](NC(=O)CN(C)C)C(=O)N(C)[C@H](C[C@@H](OC(C)=O)c1nc(C(=O)NC23CC(C(=O)OC)(C2)C3)cs1)C(C)C | 1.64 µM | > 25 µM | 0.0455 µM | 0.181 µM |  |  | 1.51 µM | > 25 µM | 12.3 µM | > 25 µM | 0.268 µM | > 25 µM | 0.852 µM | > 25 µM | 0.46 µM | > 25 µM
Cc1cc(Cl)nc(N(CCCNc2ccnc3cc(Cl)ccc23)Cc2ccco2)n1 | 2.45 µM | 8.22 µM | 2.05 µM | 5.14 µM | 1.65 µM | 4.49 | 2.82 µM | 9.19 µM |  |  | 2.45 µM | 9.87 µM | 3.46 µM | 14.7 µM | 2.05 µM | 6.31 µM
COc1cc2nc3cc([N+](=O)[O-])ccc3c(NCCNCC(C)(C)O)c2cc1OC | 2.01 µM | 6.51 µM | 2.83 µM | 7.49 µM | 0.238 µM | 3.04 | 0.432 µM | 1.75 µM | 2.42 µM | 11 µM |  |  | 0.472 µM | 2.83 µM | 0.769 µM | 4.48 µM
COc1ccc(/C=C/C(=O)c2sc(-n3nc(-c4ccccc4)cc3-c3ccccc3)nc2C)cc1 | > 100 µM | > 100 µM |  |  |  |  | > 100 µM | > 100 µM |  | > 100 µM |  | > 100 µM | > 100 µM | > 100 µM | > 100 µM | > 100 µM
c1ccc2c3c([nH]c2c1)C(c1ccc(C2NCCc4c2[nH]c2ccccc42)cc1)NCC3 (stereo not given) | 1.88 µM | 4.14 µM | 1.13 µM | 2.81 µM |  |  | 1.7 µM | 3.57 µM | 1.66 µM | 4.03 µM | 1.47 µM | 3.05 µM | 1.73 µM | 3.54 µM |  | 
